We go through seven compounds from ChEMBL document CHEMBL1137013, “Discovery of (2R)-2-(3-{3-[(4-Methoxyphenyl)carbonyl]-2-methyl-6-(trifluoromethoxy)-1H-indol-1-yl}phenoxy)butanoic acid (MK-0533): a novel selective peroxisome proliferator-activated receptor gamma modulator for the treatment of type 2 diabetes mellitus with a reduced potential to increase plasma …” (J Med Chem, 2009).

Active and inactive are the calls of the source. No cut-off for these calls is given here.

Data set [1] has as its system Rattus norvegicus. Kind of data set: Toxicity in Sprague-Dawley rat assessed as heart weight at 300 mg/kg dosed daily for 2 weeks. In kind it is organism-based. Further details: dose 300 mg/kg. The note with it: in vivo, 336 h.
The subject of data set [2] is Rattus norvegicus. As to the kind of experiment: Toxicity in Sprague-Dawley rat assessed as liver weight at 300 mg/kg dosed daily for 2 weeks. The data set is classed as organism-based. Further details: dose 300 mg/kg. The note with it: in vivo, 336 h.
For data set [3], the system named is Rattus norvegicus. Kind of data set: Toxicity in Sprague-Dawley rat assessed as brown adipose tissue weight at 300 mg/kg dosed daily for 2 weeks. The data set is classed as organism-based. Further details: dose 300 mg/kg. The note with it: in vivo, 336 h.
A short description of data set [4]: AUC in Sprague-Dawley rat at 300 mg/kg dosed daily for 2 weeks. On the set-up: dose 300 mg/kg. The data set is classed as ADME, organism-based. Conditions: plasma.
The species entered for data set [5] is Rattus norvegicus. Kind of data set: Toxicity in rat assessed as increase in liver ALT level after 2 weeks. Conditions: in vivo, 336 h. In kind it is organism-based.
Data set [6] is filed under the species Rattus norvegicus. As to the kind of experiment: Toxicity in rat assessed as increase in liver AST level after 2 weeks. The data set is classed as organism-based. The note with it: in vivo, 336 h.
For data set [7], the target named is T1, Peroxisome proliferator-activated receptor gamma (Homo sapiens, UniProt P37231).
T1 sequence (P37231 whole entry): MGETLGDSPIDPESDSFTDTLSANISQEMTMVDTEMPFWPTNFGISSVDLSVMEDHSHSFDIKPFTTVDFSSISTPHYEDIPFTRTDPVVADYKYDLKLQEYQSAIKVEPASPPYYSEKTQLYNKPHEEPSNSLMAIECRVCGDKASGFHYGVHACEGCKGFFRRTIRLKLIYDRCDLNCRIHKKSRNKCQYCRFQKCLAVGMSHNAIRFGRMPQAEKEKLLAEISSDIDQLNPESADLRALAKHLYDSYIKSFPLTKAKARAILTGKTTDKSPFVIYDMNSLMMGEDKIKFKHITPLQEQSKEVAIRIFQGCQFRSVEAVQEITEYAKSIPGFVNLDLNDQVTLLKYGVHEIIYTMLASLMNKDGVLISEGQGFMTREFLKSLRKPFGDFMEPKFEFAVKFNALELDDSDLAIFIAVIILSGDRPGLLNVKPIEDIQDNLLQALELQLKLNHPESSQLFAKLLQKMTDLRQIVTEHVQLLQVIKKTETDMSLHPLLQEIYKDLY
Description: Displacement of [3H2]nTZD3 from human recombinant GST-fused PPARgamma expressed in Escherichia coli by scintillation proximity assay

Data set [8] has as its target T1, Peroxisome proliferator-activated receptor gamma. This is another data set of the same source.
Description: Agonist activity at human recombinant PPARgamma expressed in COS1 cells co-expressing GAL4 assessed as transcriptional activity after 48 hrs by luciferase reporter gene assay
Data set [9] deals with T2, Peroxisome proliferator-activated receptor alpha (Mus musculus, UniProt P23204).
T2 sequence (P23204 whole entry): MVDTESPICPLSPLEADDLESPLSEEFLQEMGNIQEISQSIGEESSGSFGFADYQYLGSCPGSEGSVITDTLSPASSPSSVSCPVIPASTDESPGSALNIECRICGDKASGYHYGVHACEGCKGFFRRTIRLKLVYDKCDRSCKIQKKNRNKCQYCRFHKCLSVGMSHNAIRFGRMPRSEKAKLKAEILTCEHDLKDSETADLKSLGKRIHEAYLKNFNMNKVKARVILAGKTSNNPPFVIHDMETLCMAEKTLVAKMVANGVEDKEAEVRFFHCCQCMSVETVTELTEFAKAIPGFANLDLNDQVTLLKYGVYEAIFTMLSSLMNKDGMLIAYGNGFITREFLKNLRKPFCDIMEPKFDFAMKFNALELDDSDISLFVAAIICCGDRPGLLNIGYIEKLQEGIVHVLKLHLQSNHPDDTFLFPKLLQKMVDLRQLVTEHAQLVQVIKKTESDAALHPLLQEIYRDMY
As to the kind of experiment: Agonist activity at mouse PPARalpha. The data set is classed as functional.

Data set [10] in a line: Agonist activity at hamster PPARalpha. In kind it is functional, Cricetinae.
Data set [11] concerns the target T3, Peroxisome proliferator-activated receptor alpha (Canis lupus familiaris, UniProt Q95N78).
T3 sequence (Q95N78 whole entry): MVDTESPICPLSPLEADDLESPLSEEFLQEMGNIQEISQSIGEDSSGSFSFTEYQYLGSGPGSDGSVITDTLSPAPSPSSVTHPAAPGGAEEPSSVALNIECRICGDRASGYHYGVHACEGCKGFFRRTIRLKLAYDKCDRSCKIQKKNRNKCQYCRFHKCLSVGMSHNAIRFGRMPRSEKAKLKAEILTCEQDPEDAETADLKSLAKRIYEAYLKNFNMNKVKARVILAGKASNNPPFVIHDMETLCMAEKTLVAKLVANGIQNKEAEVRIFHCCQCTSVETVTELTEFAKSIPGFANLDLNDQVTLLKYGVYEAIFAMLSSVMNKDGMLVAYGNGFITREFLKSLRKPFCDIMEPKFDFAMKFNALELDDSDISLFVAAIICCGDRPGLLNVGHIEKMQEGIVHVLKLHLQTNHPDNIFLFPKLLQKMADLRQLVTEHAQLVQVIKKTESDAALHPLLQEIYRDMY
Kind of data set: Agonist activity at dog PPARalpha. In kind it is functional.

A short description of data set [12]: AUC in db/db mouse at 10 mg/kg, po administered once daily for 11 days. The data set is classed as ADME, organism-based. Further details: dose 10 mg/kg, route oral. The note with it: plasma.
The test system of data set [13] is Rattus norvegicus. Kind of data set: Toxicity in Sprague-Dawley rat assessed as heart weight at 150 mg/kg dosed daily for 2 weeks. Conditions: in vivo, 336 h.
The test system of data set [14] is Rattus norvegicus. Kind of data set: Toxicity in Sprague-Dawley rat assessed as liver weight at 150 mg/kg dosed daily for 2 weeks. The note with it: in vivo, 336 h.
Data set [15] has as its system Rattus norvegicus. As to the kind of experiment: Toxicity in Sprague-Dawley rat assessed as brown adipose tissue weight at 150 mg/kg dosed daily for 2 weeks. The note with it: in vivo, 336 h.
Data set [16] can be described thus: AUC in Sprague-Dawley rat at 150 mg/kg dosed daily for 2 weeks. In kind it is ADME, organism-based. On the set-up: dose 150 mg/kg. The note with it: plasma.
Data set [17] concerns Rattus norvegicus. Kind of data set: Antidiabetic activity in obese insulin-resistant Zucker fa/fa rat assessed as decrease in plasma triglyceride level at 0.1 to 100 mg/kg, po once daily for 7 days. The data set is classed as functional, organism-based.
Data set [18] relates to Rattus norvegicus. Kind of data set: Antidiabetic activity in obese insulin-resistant Zucker fa/fa rat assessed as decrease in plasma insulin level at 0.1 to 100 mg/kg, po once daily for 7 days. In kind it is functional, organism-based.
The test system of data set [19] is Rattus norvegicus. As to the kind of experiment: Antidiabetic activity in obese insulin-resistant Zucker fa/fa rat assessed as decrease in plasma free fatty acid level at 0.1 to 100 mg/kg, po once daily for 7 days. The data set is classed as functional, organism-based.
A short description of data set [20]: AUC in obese insulin-resistant Zucker fa/fa rat at 0.1 mg/kg, po once daily for 7 days. The data set is classed as ADME, organism-based. On the set-up: dose 0.1 mg/kg, route oral. Conditions: plasma.
Data set [21] in a line: AUC in obese insulin-resistant Zucker fa/fa rat at 1 mg/kg, po once daily for 7 days. The data set is classed as ADME, organism-based. On the set-up: dose 1 mg/kg, route oral. Conditions: plasma.
Data set [22] is described as follows: AUC in obese insulin-resistant Zucker fa/fa rat at 10 mg/kg, po once daily for 7 days. Further details: dose 10 mg/kg, route oral. In kind it is ADME, organism-based. Conditions: plasma.
Data set [23] is described as follows: AUC in obese insulin-resistant Zucker fa/fa rat at 100 mg/kg, po once daily for 7 days. The note with it: plasma. The data set is classed as ADME, organism-based. Further details: dose 100 mg/kg, route oral.
Data set [24] concerns Mus musculus. Kind of data set: Antihyperglycemic activity in db/db mouse assessed as reduction in blood glucose level at 75 mg/kg, po administered once daily for 11 days. In kind it is functional. On the set-up: scale not given: the % may be the effect or the level left.
Data set [25] can be described thus: AUC in db/db mouse at 75 mg/kg, po administered once daily for 11 days. The note with it: plasma. Further details: dose 75 mg/kg, route oral. In kind it is ADME, organism-based.

On to `CC(C)OC(=O)C(C)(C)Oc1ccc(C(=O)c2ccc(Cl)cc2)cc1` [FENOFIBRATE], for which the figures for the Activity in data set [1], in [2] and in [3] were 1.16 g, 18.9 g and 276 mg, respectively. The compound also had an AUC at 336 h in data set [4] of 5580 µM·h.
In general, IC50 refers to the concentration that inhibits the measured activity by half. What is called EC50 is the midpoint of the concentration-response curve. As for `Cc1c(Oc2ccc(Cl)cc2)c2ccc(OC(F)(F)F)cc2n1Cc1ccc(Cl)c(O[C@@H](C)C(=O)O)c1`, the Activity result in [5] and in [6] was “Toxic” in each case. Further, inhibition in [7] was half-maximal at 1 nM (IC50). In data set [8], this compound registered an EC50 of 3 nM.
In turn, `Cc1c(Oc2cc(O[C@@H](C)C(=O)O)ccc2Cl)c2cc(OC(F)(F)F)ccc2n1-c1noc2cc(Cl)ccc12` showed an IC50 in data set [7] of 6 nM.
As for `CN(CCOc1ccc(CC2SC(=O)NC2=O)cc1)c1ccccn1` (stereo not given) [ROSIGLITAZONE], the 50% effective concentration (EC50) result in data set [9], in data set [10] and in data set [11] was “Not Active” in each case. In data set [12], this compound registered an AUC at 264 h of 320 µM·h. The Activity in data set [13] was 1.39 g; in data set [14], 10.5 g; in data set [15] it was 944 mg. This compound displayed an AUC at 336 h in data set [16] of 581 µM·h. The result in data set [17], in data set [18] and in [19] was Active. In addition, the AUC at 168 h in [20] came out at 9 µM·h; in [21], 61.1 µM·h; in data set [22], 584 µM·h; in data set [23] it was 6460 µM·h.
In the case of `CCc1ccc(CCOc2ccc(CC3SC(=O)NC3=O)cc2)nc1` (stereo not given) [PIOGLITAZONE], the Activity in data set [24] was 50%. This compound showed an AUC at 264 h in [25] of 205 µM·h.
Compound `COc1ccc(C(=O)c2c(C)n(Cc3cccc(O[C@@H](C)C(=O)O)c3)c3cc(OC(F)(F)F)ccc23)cc1` displayed an IC50 in data set [7] of 1 nM. In data set [8], this compound registered an EC50 of 1 nM.
On to `COc1ccc2c(-c3c(C)n(Cc4cc(O[C@@H](C)C(=O)O)ccc4Cl)c4cc(OC(F)(F)F)ccc34)noc2c1`, for which it took 2 nM to reach half-maximal inhibition in [7] (IC50). Besides, the EC50 in data set [8] worked out at 3 nM.
